Paper PMC3265452 (PLoS Neglected Tropical Diseases, 2012)
Structures can show the parent of a compound that is named as a salt.

What follows are molecules tested against AaDOP2 (Aedes aegypti, UniProt H6D5H2) (assay: AaDOP2 antagonist screen of the LOPAC1280 library (HEK-CRELuc-Aadop2 cells, luminescence)). Conditions: not given.
Assay type: cell-based

Sequence of AaDOP2 (H6D5H2 1-476): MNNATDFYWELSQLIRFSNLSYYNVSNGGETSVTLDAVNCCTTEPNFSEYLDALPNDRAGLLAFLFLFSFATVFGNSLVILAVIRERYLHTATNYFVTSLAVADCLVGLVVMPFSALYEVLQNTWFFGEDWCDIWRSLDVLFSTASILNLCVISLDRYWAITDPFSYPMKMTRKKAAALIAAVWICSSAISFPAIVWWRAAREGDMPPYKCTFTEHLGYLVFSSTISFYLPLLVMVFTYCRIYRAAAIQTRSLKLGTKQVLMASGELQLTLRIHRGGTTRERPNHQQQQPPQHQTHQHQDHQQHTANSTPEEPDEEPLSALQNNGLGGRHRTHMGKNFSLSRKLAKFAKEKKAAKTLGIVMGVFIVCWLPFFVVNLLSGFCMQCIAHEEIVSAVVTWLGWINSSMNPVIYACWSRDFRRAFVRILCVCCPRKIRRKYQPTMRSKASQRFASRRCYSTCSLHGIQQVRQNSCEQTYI

Structure (SMILES)	Compound effect (percent receptor signaling in presence of test compound, relative lux units relative to the SCH23390 control)
Cl.NC1C=CC=C(C(=O)O)C1 (stereo not shown) [Compound 41, Gabaculine hydrochloride]	106
CC1=C(C)C(=O)C(CCCCC#CCCCC#CCO)=C(C)C1=O [Compound 43, AA-861]	69
Cl.Nc1c2c(nc3ccccc13)CCCC2 [Compound 44, 9-Amino-1,2,3,4-tetrahydroacridine hydrochloride]	206
O=C(O)CCC/C=C\C[C@@H]1[C@@H](/C=C/[C@H](O)C2Cc3ccccc3C2)[C@@H](F)C[C@@H]1O [Compound 45, AL-8810]	102
Nn1nnc2ccccc21 [Compound 46, 1-Aminobenzotriazole]	141
CN1CCc2cccc3c2[C@H]1Cc1ccc(O)c(O)c1-3 [Compound 48, Apomorphine hydrochloride hemihydrate]	54
CN(C)c1nc(N)c(C(=O)NC(=N)N)nc1Cl [Compound 50, 5-(N,N-Dimethyl)amiloride hydrochloride]	108
Cn1cnc([N+](=O)[O-])c1Sc1ncnc2nc[nH]c12 [Compound 51, Azathioprine]	103
Nc1nc2c(ncn2COCCO)c(=O)[nH]1 [Compound 52, Acyclovir]	90
CN(C)CCCO[C@@H]1[C@H]2OC(C)(C)O[C@H]2O[C@@H]1[C@H](O)CO [Compound 53, Amiprilose hydrochloride]	99
O=C1Cc2c([nH]c3ccc([N+](=O)[O-])cc23)-c2ccccc2N1 [Compound 54, Alsterpaullone]	92
N=C(N)NCCC[C@H](N)C(=O)O [Compound 56, L-Arginine]	94
CC(=O)N[C@@H](Cc1c[nH]c2ccccc12)C(=O)OCc1cc(C(F)(F)F)cc(C(F)(F)F)c1 [Compound 59, L-732,138]	100
CC(=O)Oc1ccccc1C(=O)O [Compound 60, Acetylsalicylic acid]	87
CC(C)CN(C)c1nc(N)c(C(=O)N=C(N)N)nc1Cl [Compound 61, 5-(N-Methyl-N-isobutyl)amiloride]	72
CC(=O)SCC[N+](C)(C)C.[Cl-] [Compound 62, Acetylthiocholine chloride]	122
C[C@]12CCC(=O)C(O)=C1CC[C@@H]1[C@@H]2CC[C@]2(C)C(=O)CC[C@@H]12 [Compound 63, 4-Androsten-4-ol-3,17-dione]	107
Br.Br.N=C(N)SCCN [Compound 64, 2-(2-Aminoethyl)isothiourea dihydrobromide]	104
C[C@H](CCC(=O)NCCS(=O)(=O)O)[C@H]1CC[C@H]2[C@@H]3[C@H](O)C[C@@H]4C[C@H](O)CC[C@]4(C)[C@H]3C[C@H](O)[C@]12C [Compound 66, Sodium Taurocholate]	115
NCCCNCCSP(=O)(O)O [Compound 67, Amifostine]	111
CC(=O)Nc1nnc(S(N)(=O)=O)s1 [Compound 68, Acetazolamide]	106
COC(=O)C1=CCCN(C)C1 [Compound 69, Arecoline hydrobromide]	104
CCS(=O)(=O)Nc1cccc(C(=C2CCCCC2)c2cnc[nH]2)c1 [Compound 70, A-315456]	111

Structure (SMILES)	Compound effect (percent receptor signaling in presence of test compound, relative lux units relative to the SCH23390 control)
COc1ccc(CNC(=O)/C=C/c2ccc3[nH]cc(CCN(C)C)c3c2)cc1 [Compound 71, GR 4661]	114
CCCCC[C@H](CC(=O)NO)C(=O)N[C@H](C(=O)N1CCC[C@H]1CO)C(C)C [Compound 73, Actinonin]	96
CN(Cc1cnc2nc(N)nc(N)c2n1)c1ccc(C(=O)N[C@@H](CCC(=O)O)C(=O)O)cc1 [Compound 74, Methotrexate]	89
C[N+]1(C)[C@@H]2CC[C@H]1C[C@@H](OC(=O)C(CO)c1ccccc1)C2 (stereo partly shown) [Compound 75, Atropine methyl bromide]	105
CCNC(=O)N1CCN(CCCC(c2ccc(F)cc2)c2ccc(F)cc2)CC1 [Compound 76, Amperozide hydrochloride]	17
NCCCCN=C(N)N [Compound 78, Agmatine sulfate]	113
Cl.Cl.N=C(N)c1ccc(N)cc1 [Compound 79, 4-Aminobenzamidine dihydrochloride]	106
NCCCP(=O)(O)O [Compound 80, 3-Aminopropylphosphonic acid]	101
CC(=O)N[C@@H](CS)C(=O)O [Compound 81, N-Acetyl-L-Cysteine]	101
N[C@@H](CCCC(=O)O)C(=O)O [Compound 82, L-2-aminoadipic acid]	96
CC(=O)NCCc1c[nH]c2ccccc12 [Compound 83, N-Acetyltryptamine]	42
N=C(N)NC(=O)c1nc(Cl)c(N)nc1N [Compound 84, Amiloride hydrochloride]	110
C[C@]12CC[C@@H](O)C[C@@H]1CC[C@@H]1[C@@H]2CC[C@]2(C)[C@@H](O)CC[C@@H]12 [Compound 86, 5alpha-Androstane-3alpha,17beta-diol]	98
C=CC[C@H](N)C(=O)O [Compound 87, L-allylglycine]	107
NCCCCCC(=O)O [Compound 89, 6-Aminohexanoic acid]	120
Oc1ncnc2[nH]ncc12 [Compound 91, Allopurinol]	101
CCCCc1oc2ccccc2c1C(=O)c1cc(I)c(OCCN(CC)CC)c(I)c1 [Compound 93, Amiodarone hydrochloride]	104
Cl.NCCc1ccc(S(=O)(=O)F)cc1 [Compound 94, 4-(2-Aminoethyl)benzenesulfonyl fluoride hydrochloride]	105
N=c1ccn2c(n1)O[C@H]1[C@H](O)[C@@H](CO)O[C@H]12 [Compound 95, Ancitabine hydrochloride]	119
C=CCc1ccccc1OCC(O)CNC(C)C (stereo not shown) [Compound 96, Alprenolol hydrochloride]	104
CN(C)c1nc(N(C)C)nc(N(C)C)n1 [Compound 97, Altretamine]	105
C=CC[N+](C)(C)c1ccc(CCC(=O)CCc2ccc([N+](C)(C)CC=C)cc2)cc1.[Br-].[Br-] [Compound 100, BW 284c51]	93

Same assay, conditions: 10 µM compound, 300 nM dopamine, 2 hr; hit = compound effect <20

Structure (SMILES)	Compound effect (percent receptor signaling in presence of test compound, relative lux units relative to the SCH23390 control)
Cl.NCCCCCCNS(=O)(=O)c1cccc2c(Cl)cccc12 [Compound 40, W-7 hydrochloride]	87%
NCCCS(=O)(=O)O.[Na] [Compound 47, 3-Amino-1-propanesulfonic acid sodium]	94%
Cl.NOCC(=O)O.NOCC(=O)O [Compound 49, O-(Carboxymethyl)hydroxylamine hemihydrochloride]	97%
CCN(CC)CCNC(=O)c1ccc(NC(C)=O)cc1.Cl [Compound 65, N-Acetylprocainamide hydrochloride]	126%
NCC(O)(CS(=O)(=O)O)c1ccc(Cl)cc1 (stereo not shown) [Compound 72, 2-Hydroxysaclofen]	110%
NN=C(N)N.NN=C(N)N.O=S(=O)(O)O [Compound 77, Aminoguanidine hemisulfate]	107%
Cl.Cl.NCCNS(=O)(=O)c1cccc2cnccc12 [Compound 88, H-9 dihydrochloride]	64%
CC(=O)NCCc1ccc(O)c(O)c1.O [Compound 98, N-Acetyldopamine monohydrate]	95%
Cl.N=C(N)NN [Compound 99, Aminoguanidine hydrochloride]	107%

Same assay, conditions: read-out: % of the SCH23390 effect (percent inhibition of receptor response relative to the SCH23390 control)

Structure (SMILES)	inhibition at 10 µM
CCNC(=O)N1CCN(CCCC(c2ccc(F)cc2)c2ccc(F)cc2)CC1 [Compound 76, Amperozide hydrochloride]	83%
